ChEMBL document CHEMBL1177794, “Broad spectrum alkynyl inhibitors of T315I Bcr-Abl” (Bioorg Med Chem Lett, 2010)

Key:
[1] = molecular target: Dual specificity protein kinase CLK4 (Homo sapiens) (UniProt Q9HAZ1); assay: Inhibition of CLK4 at 10 uM; conditions: values are per cent of control
[2] = molecular target: Phosphatidylinositol 4,5-bisphosphate 3-kinase catalytic subunit gamma isoform (Homo sapiens) (UniProt P48736); assay: Inhibition of PIK3CG at 10 uM
[3] = test system: Tyrosine-protein kinase ABL1 (Homo sapiens), P00519 [F317L]; assay: Inhibition of phosphorylated ABL1 F317L mutant at 10 uM; conditions: values are per cent of control
[4] = molecular target: Misshapen-like kinase 1 (Homo sapiens) (UniProt Q8N4C8); assay: Inhibition of MINK at 10 uM
[5] = molecular target: Testis-specific serine/threonine-protein kinase 1 (Homo sapiens) (UniProt Q9BXA7); assay: Inhibition of TSSK1B at 10 uM; conditions: values are per cent of control
[6] = molecular target: Serine/threonine-protein kinase 38-like (Homo sapiens) (UniProt Q9Y2H1); assay: Inhibition of NDR2 at 10 uM
[7] = molecular target: Tyrosine-protein kinase TXK (Homo sapiens) (UniProt P42681); assay: Inhibition of TXK at 10 uM; conditions: values are per cent of control
[8] = molecular target: Serine/threonine-protein kinase PAK 4 (Homo sapiens) (UniProt O96013); assay: Inhibition of PAK4 at 10 uM
[9] = molecular target: Ephrin type-A receptor 3 (Homo sapiens) (UniProt P29320); assay: Inhibition of EPHA3 at 10 uM; conditions: values are per cent of control
[10] = molecular target: Cyclin-dependent kinase 19 (Homo sapiens) (UniProt Q9BWU1); assay: Inhibition of CDK11 at 10 uM; values are per cent of control
[11] = molecular target: Serine/threonine-protein kinase ULK2 (Homo sapiens) (UniProt Q8IYT8); assay: Inhibition of ULK2 at 10 uM; conditions: values are per cent of control
[12] = molecular target: Calcium/calmodulin-dependent protein kinase type 1G (Homo sapiens) (UniProt Q96NX5); assay: Inhibition of CAMK1G at 10 uM; conditions: values are per cent of control
[13] = molecular target: Serine/threonine-protein kinase pim-2 (Homo sapiens) (UniProt Q9P1W9); assay: Inhibition of PIM2 at 10 uM
[14] = molecular target: Myosin light chain kinase, smooth muscle (Homo sapiens) (UniProt Q15746); assay: Inhibition of MYLK at 10 uM
[15] = molecular target: Aurora kinase B (Homo sapiens) (UniProt Q96GD4); assay: Inhibition of AURKB at 10 uM; conditions: values are per cent of control
[16] = test system: Phosphatidylinositol 4,5-bisphosphate 3-kinase catalytic subunit alpha isoform (Homo sapiens), P42336 [I800L]; assay: Inhibition of PIK3CA I800L mutant at 10 uM
[17] = test system: Tyrosine-protein kinase ABL1 (Homo sapiens), P00519 [M351T]; assay: Inhibition of phosphorylated ABL1 M351T mutant at 10 uM; conditions: values are per cent of control
[18] = molecular target: Proto-oncogene tyrosine-protein kinase Src (Homo sapiens) (UniProt P12931); assay: Inhibition of SRC at 10 uM; values are per cent of control
[19] = molecular target: Receptor tyrosine-protein kinase erbB-2 (Homo sapiens) (UniProt P04626); assay: Inhibition of ERBB2 at 10 uM; values are per cent of control
[20] = molecular target: Serine/threonine-protein kinase MRCK alpha (Homo sapiens) (UniProt Q5VT25); assay: Inhibition of MRCKA at 10 uM
[21] = molecular target: Mitogen-activated protein kinase kinase kinase kinase 3 (Homo sapiens) (UniProt Q8IVH8); assay: Inhibition of MAP4K3 at 10 uM; values are per cent of control
[22] = molecular target: Casein kinase I isoform epsilon (Homo sapiens) (UniProt P49674); assay: Inhibition of CSNK1E at 10 uM; values are per cent of control
[23] = molecular target: Serine/threonine-protein kinase TBK1 (Homo sapiens) (UniProt Q9UHD2); assay: Inhibition of TBK1 at 10 uM
[24] = molecular target: Tyrosine-protein kinase Yes (Homo sapiens) (UniProt P07947); assay: Inhibition of YES at 10 uM; conditions: values are per cent of control
[25] = test system: Receptor-type tyrosine-protein kinase FLT3 (Homo sapiens), P36888 [D835H]; assay: Inhibition of FLT3 D835H mutant at 10 uM; conditions: values are per cent of control
[26] = molecular target: MAP/microtubule affinity-regulating kinase 4 (Homo sapiens) (UniProt Q96L34); assay: Inhibition of MARK4 at 10 uM; conditions: values are per cent of control
[27] = test system: Fibroblast growth factor receptor 3 (Homo sapiens), P22607 [G697C]; assay: Inhibition of FGFR3 G697C mutant at 10 uM; conditions: values are per cent of control
[28] = molecular target: Platelet-derived growth factor receptor alpha (Homo sapiens) (UniProt P16234); assay: Inhibition of PDGFRA at 10 uM; conditions: values are per cent of control
[29] = molecular target: Atypical kinase COQ8B, mitochondrial (Homo sapiens) (UniProt Q96D53); assay: Inhibition of ADCK4 at 10 uM; conditions: values are per cent of control
[30] = test system: Mast/stem cell growth factor receptor Kit (Homo sapiens), P10721 [D816H]; assay: Inhibition of KIT D816H mutant at 10 uM; conditions: values are per cent of control
[31] = molecular target: Casein kinase I isoform gamma-3 (Homo sapiens) (UniProt Q9Y6M4); assay: Inhibition of CSNK1G3 at 10 uM; values are per cent of control
[32] = molecular target: Casein kinase I isoform gamma-2 (Homo sapiens) (UniProt P78368); assay: Inhibition of CSNK1G2 at 10 uM; values are per cent of control
[33] = molecular target: MAP kinase-activated protein kinase 5 (Homo sapiens) (UniProt Q8IW41); assay: Inhibition of MAPKAPK5 at 10 uM; conditions: values are per cent of control
[34] = molecular target: RAC-gamma serine/threonine-protein kinase (Homo sapiens) (UniProt Q9Y243); assay: Inhibition of AKT3 at 10 uM; conditions: values are per cent of control
[35] = molecular target: Eukaryotic translation initiation factor 2-alpha kinase 1 (Homo sapiens) (UniProt Q9BQI3); assay: Inhibition of EIF2AK1 at 10 uM; conditions: values are per cent of control
[36] = molecular target: Mitogen-activated protein kinase 14 (Homo sapiens) (UniProt Q16539); assay: Inhibition of p38alpha at 10 uM; values are per cent of control
[37] = molecular target: NT-3 growth factor receptor (Homo sapiens) (UniProt Q16288); assay: Inhibition of TRKC at 10 uM; conditions: values are per cent of control
[38] = molecular target: Cyclin-dependent kinase 7 (Homo sapiens) (UniProt P50613); assay: Inhibition of CDK7 at 10 uM; values are per cent of control
[39] = molecular target: Hormonally up-regulated neu tumor-associated kinase (Homo sapiens) (UniProt P57058); assay: Inhibition of HUNK at 10 uM; conditions: values are per cent of control
[40] = molecular target: Casein kinase I isoform alpha-like (Homo sapiens) (UniProt Q8N752); assay: Inhibition of CSNK1A1L at 10 uM; conditions: values are per cent of control
[41] = molecular target: Maternal embryonic leucine zipper kinase (Homo sapiens) (UniProt Q14680); assay: Inhibition of MELK at 10 uM; conditions: values are per cent of control
[42] = molecular target: Dual specificity mitogen-activated protein kinase kinase 2 (Homo sapiens) (UniProt P36507); assay: Inhibition of MEK2 at 10 uM; conditions: values are per cent of control

Calcium/calmodulin-dependent protein kinase type 1G (Homo sapiens), sequence (Q96NX5 whole entry): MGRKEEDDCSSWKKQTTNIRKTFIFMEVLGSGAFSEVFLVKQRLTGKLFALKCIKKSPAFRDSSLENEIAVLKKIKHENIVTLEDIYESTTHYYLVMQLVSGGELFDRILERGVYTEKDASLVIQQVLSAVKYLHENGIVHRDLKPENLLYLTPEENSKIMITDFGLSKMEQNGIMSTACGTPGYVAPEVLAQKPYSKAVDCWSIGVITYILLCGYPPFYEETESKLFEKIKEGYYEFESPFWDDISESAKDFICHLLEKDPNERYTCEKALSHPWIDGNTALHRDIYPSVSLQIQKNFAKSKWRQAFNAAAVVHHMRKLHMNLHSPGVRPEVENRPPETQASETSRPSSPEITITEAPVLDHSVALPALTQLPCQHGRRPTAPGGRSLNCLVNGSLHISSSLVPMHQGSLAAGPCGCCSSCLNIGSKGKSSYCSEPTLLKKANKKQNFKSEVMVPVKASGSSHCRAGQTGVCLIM
Mitogen-activated protein kinase 14 (Homo sapiens), sequence (Q16539 whole entry): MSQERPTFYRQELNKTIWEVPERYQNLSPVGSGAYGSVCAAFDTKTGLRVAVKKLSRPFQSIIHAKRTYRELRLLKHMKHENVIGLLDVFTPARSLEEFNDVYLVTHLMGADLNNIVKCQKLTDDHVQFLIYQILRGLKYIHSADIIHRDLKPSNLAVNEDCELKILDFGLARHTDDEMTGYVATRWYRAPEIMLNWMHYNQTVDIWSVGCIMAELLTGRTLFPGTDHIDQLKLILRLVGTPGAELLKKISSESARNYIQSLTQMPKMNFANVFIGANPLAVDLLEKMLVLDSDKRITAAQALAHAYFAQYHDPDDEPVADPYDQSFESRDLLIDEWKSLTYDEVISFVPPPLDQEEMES
Casein kinase I isoform gamma-2 (Homo sapiens), sequence (P78368 whole entry, looked up, canonical isoform): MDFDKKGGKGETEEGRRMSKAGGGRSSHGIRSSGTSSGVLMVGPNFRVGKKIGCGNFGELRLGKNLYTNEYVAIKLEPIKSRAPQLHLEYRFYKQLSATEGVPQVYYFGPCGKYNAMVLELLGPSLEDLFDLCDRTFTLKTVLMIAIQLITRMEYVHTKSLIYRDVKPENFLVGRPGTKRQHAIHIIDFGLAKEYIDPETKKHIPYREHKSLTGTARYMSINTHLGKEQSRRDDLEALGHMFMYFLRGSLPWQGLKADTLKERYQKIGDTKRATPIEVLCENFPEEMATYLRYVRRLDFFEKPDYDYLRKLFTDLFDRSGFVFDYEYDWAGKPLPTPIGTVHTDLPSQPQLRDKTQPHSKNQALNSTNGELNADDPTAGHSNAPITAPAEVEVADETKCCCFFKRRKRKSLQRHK
RAC-gamma serine/threonine-protein kinase (Homo sapiens), sequence (Q9Y243 whole entry): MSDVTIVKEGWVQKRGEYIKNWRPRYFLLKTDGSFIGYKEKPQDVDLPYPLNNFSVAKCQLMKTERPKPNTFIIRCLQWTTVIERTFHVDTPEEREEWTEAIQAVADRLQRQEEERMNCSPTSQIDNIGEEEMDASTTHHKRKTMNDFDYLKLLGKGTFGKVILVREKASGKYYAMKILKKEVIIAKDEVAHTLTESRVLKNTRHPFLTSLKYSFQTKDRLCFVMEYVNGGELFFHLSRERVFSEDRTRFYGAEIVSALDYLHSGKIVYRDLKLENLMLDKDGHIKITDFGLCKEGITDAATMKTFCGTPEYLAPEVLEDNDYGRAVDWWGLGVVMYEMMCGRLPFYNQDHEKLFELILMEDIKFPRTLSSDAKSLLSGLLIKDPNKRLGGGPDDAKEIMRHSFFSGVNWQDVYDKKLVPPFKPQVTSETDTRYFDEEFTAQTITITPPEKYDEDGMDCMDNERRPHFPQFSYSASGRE
Ephrin type-A receptor 3 (Homo sapiens), sequence (P29320 whole entry): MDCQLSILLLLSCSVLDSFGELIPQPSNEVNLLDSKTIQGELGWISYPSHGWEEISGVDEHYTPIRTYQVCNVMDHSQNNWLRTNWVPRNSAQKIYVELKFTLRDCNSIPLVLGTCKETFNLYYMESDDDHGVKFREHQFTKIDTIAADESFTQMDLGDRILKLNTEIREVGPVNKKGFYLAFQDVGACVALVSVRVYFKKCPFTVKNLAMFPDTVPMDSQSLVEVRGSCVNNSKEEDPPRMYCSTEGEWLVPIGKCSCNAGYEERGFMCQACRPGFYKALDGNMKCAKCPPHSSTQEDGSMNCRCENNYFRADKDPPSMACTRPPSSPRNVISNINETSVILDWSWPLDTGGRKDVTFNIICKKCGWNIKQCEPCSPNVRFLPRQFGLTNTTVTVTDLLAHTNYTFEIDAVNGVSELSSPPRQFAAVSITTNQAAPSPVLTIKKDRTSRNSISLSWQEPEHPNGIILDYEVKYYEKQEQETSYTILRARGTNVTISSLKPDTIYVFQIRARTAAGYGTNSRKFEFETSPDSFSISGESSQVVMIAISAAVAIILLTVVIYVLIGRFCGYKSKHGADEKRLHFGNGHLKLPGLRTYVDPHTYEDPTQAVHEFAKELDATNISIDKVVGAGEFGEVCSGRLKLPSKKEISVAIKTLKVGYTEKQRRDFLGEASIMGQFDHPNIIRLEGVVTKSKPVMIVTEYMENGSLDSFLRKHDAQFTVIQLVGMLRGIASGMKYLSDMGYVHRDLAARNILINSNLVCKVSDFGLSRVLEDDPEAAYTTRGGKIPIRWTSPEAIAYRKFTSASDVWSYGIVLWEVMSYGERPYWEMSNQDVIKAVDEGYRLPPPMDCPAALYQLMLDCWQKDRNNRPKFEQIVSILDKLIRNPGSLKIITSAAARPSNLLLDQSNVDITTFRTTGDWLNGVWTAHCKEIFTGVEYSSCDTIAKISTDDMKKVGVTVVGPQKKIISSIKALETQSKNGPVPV
Receptor tyrosine-protein kinase erbB-2 (Homo sapiens), sequence (P04626 whole entry): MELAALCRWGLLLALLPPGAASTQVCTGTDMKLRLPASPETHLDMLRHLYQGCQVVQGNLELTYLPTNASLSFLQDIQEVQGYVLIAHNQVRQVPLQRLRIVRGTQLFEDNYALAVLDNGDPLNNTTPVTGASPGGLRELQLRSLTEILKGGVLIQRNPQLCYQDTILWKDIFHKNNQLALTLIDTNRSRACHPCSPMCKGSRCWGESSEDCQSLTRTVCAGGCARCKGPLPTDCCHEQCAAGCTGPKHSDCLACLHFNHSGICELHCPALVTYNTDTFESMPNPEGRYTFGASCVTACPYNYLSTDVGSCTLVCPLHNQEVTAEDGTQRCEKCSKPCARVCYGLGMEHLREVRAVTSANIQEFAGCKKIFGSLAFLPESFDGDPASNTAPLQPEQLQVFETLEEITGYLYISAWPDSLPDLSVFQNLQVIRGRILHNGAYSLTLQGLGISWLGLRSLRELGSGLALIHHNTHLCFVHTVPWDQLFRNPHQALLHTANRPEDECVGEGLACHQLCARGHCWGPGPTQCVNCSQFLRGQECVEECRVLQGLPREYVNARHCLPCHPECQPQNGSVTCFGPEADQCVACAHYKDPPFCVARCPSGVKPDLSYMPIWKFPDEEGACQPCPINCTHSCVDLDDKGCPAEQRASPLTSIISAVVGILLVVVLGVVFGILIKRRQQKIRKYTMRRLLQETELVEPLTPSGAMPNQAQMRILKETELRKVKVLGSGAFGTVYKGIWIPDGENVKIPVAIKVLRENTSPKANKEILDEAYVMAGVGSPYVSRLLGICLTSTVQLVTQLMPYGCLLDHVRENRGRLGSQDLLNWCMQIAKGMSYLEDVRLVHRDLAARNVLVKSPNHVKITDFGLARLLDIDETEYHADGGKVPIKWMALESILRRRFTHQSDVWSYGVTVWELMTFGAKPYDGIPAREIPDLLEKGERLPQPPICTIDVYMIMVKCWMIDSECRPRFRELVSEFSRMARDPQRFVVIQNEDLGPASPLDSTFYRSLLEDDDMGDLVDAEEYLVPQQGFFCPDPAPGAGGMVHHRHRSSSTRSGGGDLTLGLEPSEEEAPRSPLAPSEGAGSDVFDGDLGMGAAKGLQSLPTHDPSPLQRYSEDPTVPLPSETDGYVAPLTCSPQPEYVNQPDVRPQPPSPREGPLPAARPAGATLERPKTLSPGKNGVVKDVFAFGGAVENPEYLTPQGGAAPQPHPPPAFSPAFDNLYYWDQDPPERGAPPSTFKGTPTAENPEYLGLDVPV
Proto-oncogene tyrosine-protein kinase Src (Homo sapiens), sequence (P12931 2-536 limits assumed): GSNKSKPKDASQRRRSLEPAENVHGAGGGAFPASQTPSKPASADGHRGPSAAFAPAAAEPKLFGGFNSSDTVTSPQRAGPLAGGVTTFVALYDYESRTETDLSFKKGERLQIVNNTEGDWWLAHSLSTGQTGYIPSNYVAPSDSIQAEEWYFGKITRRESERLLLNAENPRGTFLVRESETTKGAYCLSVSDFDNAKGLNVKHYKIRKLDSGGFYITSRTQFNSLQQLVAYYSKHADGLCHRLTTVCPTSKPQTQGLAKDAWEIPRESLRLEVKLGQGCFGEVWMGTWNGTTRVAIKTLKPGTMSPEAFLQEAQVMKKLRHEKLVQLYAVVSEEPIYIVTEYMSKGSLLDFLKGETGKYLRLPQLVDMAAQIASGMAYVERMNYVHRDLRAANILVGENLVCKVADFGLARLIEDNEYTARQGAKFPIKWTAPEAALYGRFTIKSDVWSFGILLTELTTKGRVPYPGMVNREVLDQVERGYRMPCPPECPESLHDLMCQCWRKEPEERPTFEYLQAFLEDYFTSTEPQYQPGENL
MAP kinase-activated protein kinase 5 (Homo sapiens), sequence (Q8IW41 whole entry): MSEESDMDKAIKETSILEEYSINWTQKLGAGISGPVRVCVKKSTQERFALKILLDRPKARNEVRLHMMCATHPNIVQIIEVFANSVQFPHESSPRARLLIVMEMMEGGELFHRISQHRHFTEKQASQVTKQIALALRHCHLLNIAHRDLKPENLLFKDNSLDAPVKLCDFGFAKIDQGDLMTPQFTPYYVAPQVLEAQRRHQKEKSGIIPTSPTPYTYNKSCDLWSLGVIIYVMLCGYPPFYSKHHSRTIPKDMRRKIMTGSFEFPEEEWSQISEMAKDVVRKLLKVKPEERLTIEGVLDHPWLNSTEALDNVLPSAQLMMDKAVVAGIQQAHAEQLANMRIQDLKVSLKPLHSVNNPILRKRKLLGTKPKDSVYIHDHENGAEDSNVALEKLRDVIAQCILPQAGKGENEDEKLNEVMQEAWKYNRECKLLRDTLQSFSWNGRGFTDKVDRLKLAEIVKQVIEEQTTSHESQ

CCN1CCN(Cc2ccc(NC(=O)c3ccc(C)c(C#Cc4cnc5[nH]ccc5c4)c3)cc2C(F)(F)F)CC1
residual binding, % of control [1]: 32% | inhibition [2]: 100% | residual binding, % of control [3]: 0.85% | inhibition [4]: 5.4% | residual binding, % of control [5]: 98% | inhibition [6]: 11% | residual binding, % of control [7]: 0.25% | inhibition [8]: 87% | residual binding, % of control [9]: 0.75% | level, % of control [10]: 4.2% | residual binding, % of control [11]: 61% | residual binding, % of control [12]: 92% | inhibition [13]: 100% | inhibition [14]: 56% | residual binding, % of control [15]: 4.6% | inhibition [16]: 100% | residual binding, % of control [17]: 1.1% | % of control [18]: 0.05% | level, % of control [19]: 0.3% | inhibition [20]: 73% | level, % of control [21]: 1.8% | level, % of control [22]: 26% | inhibition [23]: 84% | residual binding, % of control [24]: 0.25% | residual binding, % of control [25]: 0.35% | residual binding, % of control [26]: 85% | residual binding, % of control [27]: 0.15% | residual binding, % of control [28]: 0% | residual binding, % of control [29]: 82% | residual binding, % of control [30]: 8.2% | level, % of control [31]: 22% | level, % of control [32]: 14% | residual binding, % of control [33]: 98% | residual binding, % of control [34]: 82% | residual binding, % of control [35]: 72% | level, % of control [36]: 0% | residual binding, % of control [37]: 0.35% | level, % of control [38]: 4% | residual binding, % of control [39]: 21% | residual binding, % of control [40]: 75% | residual binding, % of control [41]: 6.1% | residual binding, % of control [42]: 37%

CCN1CCN(Cc2ccc(NC(=O)c3ccc(C)c(C#Cc4cccnc4)c3)cc2C(F)(F)F)CC1
residual binding, % of control [1]: 15% | inhibition [2]: 100% | residual binding, % of control [3]: 0.85% | inhibition [4]: 2.5% | residual binding, % of control [5]: 92% | inhibition [6]: 8.7% | residual binding, % of control [7]: 0.3% | inhibition [8]: 100% | residual binding, % of control [9]: 0.85% | level, % of control [10]: 5% | residual binding, % of control [11]: 50% | residual binding, % of control [12]: 100% | inhibition [13]: 100% | inhibition [14]: 57% | residual binding, % of control [15]: 24% | inhibition [16]: 72% | residual binding, % of control [17]: 2.6% | % of control [18]: 0% | level, % of control [19]: 0.5% | inhibition [20]: 87% | level, % of control [21]: 2.6% | level, % of control [22]: 48% | inhibition [23]: 100% | residual binding, % of control [24]: 0.1% | residual binding, % of control [25]: 0.15% | residual binding, % of control [26]: 87% | residual binding, % of control [27]: 0.05% | residual binding, % of control [28]: 0% | residual binding, % of control [29]: 85% | residual binding, % of control [30]: 6% | level, % of control [31]: 85% | level, % of control [32]: 100% | residual binding, % of control [33]: 95% | residual binding, % of control [34]: 48% | residual binding, % of control [35]: 83% | level, % of control [36]: 0% | residual binding, % of control [37]: 0.35% | level, % of control [38]: 1.6% | residual binding, % of control [39]: 54% | residual binding, % of control [40]: 89% | residual binding, % of control [41]: 8.1% | residual binding, % of control [42]: 64%
